Earlier results on 55 compounds are cited in article PMC8838197, “Coumarin-Resveratrol-Inspired Hybrids as Monoamine Oxidase B Inhibitors: 3-Phenylcoumarin versus trans-6-Styrylcoumarin” (Molecules, 2022).

The test system of this data set is MAO-B. The arrangement: pIC50 MAO-B: unit not given here. As to conditions: cited from earlier work; for pIC50 MAO-B: Table S8.

Regarding `Cc1ccc2oc(=O)c(-c3ccccc3)cc2c1` [Compound 1], the “pIC50 MAO-B” value is 6.547.
For `COc1ccc(-c2cc3cc(C)ccc3oc2=O)cc1` [Compound 2], the “pIC50 MAO-B” value was 7.884.
With `COc1cc(OC)cc(-c2cc3cc(C)ccc3oc2=O)c1` [Compound 3], the “pIC50 MAO-B” value was 8.047.
In the case of `COc1cc(-c2cc3cc(C)ccc3oc2=O)cc(OC)c1OC` [Compound 4], the “pIC50 MAO-B” value is given as 6.794.
Turning to `COc1cccc(-c2cc3cc(C)ccc3oc2=O)c1` [Compound 5, 3-(3′-methoxyphenyl)-6-methylcoumarin], the “pIC50 MAO-B” value is on record as 9.096. Besides, under “data set compounds”, the “activity against MAO-B isoform” value was “picomolar range”.
With `COc1ccccc1-c1cc2cc(C)ccc2oc1=O` [Compound 6], the “pIC50 MAO-B” value is recorded as 6.808. In addition, the “MAO-B pIC50” value (data set compounds) is given as above 6.5.
With `Cc1ccc2oc(=O)c(-c3ccccc3Br)cc2c1` [Compound 8], the “pIC50 MAO-B” value was 7.957. Moreover, under “data set compounds”, the “MAO-B pIC50” value is reported as above 6.5.
With `COc1ccc(-c2cc3cc(C)cc(Br)c3oc2=O)cc1` [Compound 9], the “pIC50 MAO-B” value is on record as 8.491.
For the compound `COc1cc(OC)cc(-c2cc3cc(C)cc(Br)c3oc2=O)c1` [Compound 10], the “pIC50 MAO-B” value was 8.148. Besides, where the note is “data set compounds”, the “MAO-B pIC50” value is listed as above 6.5.
With `COc1ccc2oc(=O)c(-c3cccc(C)c3)cc2c1` [Compound 12], the “pIC50 MAO-B” value was 7.768. The “MAO-B pIC50” value (data set compounds) was above 6.5.
With `COc1ccc2oc(=O)c(-c3ccc(C)cc3)cc2c1` [Compound 13], the “pIC50 MAO-B” value is on record as 8.818.
In the case of `CC(=O)COc1ccc2oc(=O)c(-c3ccc(C)cc3)cc2c1` [Compound 15], the “pIC50 MAO-B” value is 5.258.
As to `Cc1ccc(-c2cc3cc(OC4CCCC4)ccc3oc2=O)cc1` [Compound 16], the “pIC50 MAO-B” value is given as 4.84.
For `Cc1cccc(-c2cc3cc(C)ccc3oc2=O)c1` [Compound 18], the “pIC50 MAO-B” value is listed as 7.824.
Regarding `COc1ccc(-c2cc3cc(C)ccc3oc2=O)cc1OC` [Compound 19], the “pIC50 MAO-B” value is on record as 8.564.
For `COc1cc(-c2cc3cc(C)ccc3oc2=O)ccc1Br` [Compound 20], the “pIC50 MAO-B” value is 9.131. In addition, the “MAO-B pIC50” value (data set compounds) was above 6.5.
Take `COc1ccc(-c2cc3cc(C)ccc3oc2=O)cc1Br` [Compound 21]: the “pIC50 MAO-B” value is listed as 8.488.
Consider `COc1cc(OC)c(Br)c(-c2cc3cc(C)ccc3oc2=O)c1` [Compound 22], for which the “pIC50 MAO-B” value is on record as 4.267.
As for `CC(=O)COc1cccc(-c2cc3cc(C)ccc3oc2=O)c1` [Compound 25], the “pIC50 MAO-B” value was 6.745.
On to `COc1ccc(-c2c(O)c3ccccc3oc2=O)cc1` [Compound 26], for which the “pIC50 MAO-B” value is 4.157.
For the compound `COc1ccc(-c2c(O)c3cc(C)ccc3oc2=O)cc1` [Compound 27], the “pIC50 MAO-B” value is recorded as 4.494.
Regarding `COc1ccc(-c2c(O)c3cc(C)ccc3oc2=O)cc1Cl` [Compound 29], the “pIC50 MAO-B” value is reported as 4.37.
`COc1cccc2cc(-c3ccccc3)c(=O)oc12` [Compound 34]: the “pIC50 MAO-B” value is 6.824.
`COc1cccc2cc(-c3ccc(Br)cc3)c(=O)oc12` [Compound 35]: the “pIC50 MAO-B” value is reported as 5.48.
In the case of `Cc1cccc2cc(-c3ccc(Br)cc3)c(=O)oc12` [Compound 39], the “pIC50 MAO-B” value is given as 7.701. Further, the “MAO-B pIC50” value (data set compounds) is given as above 6.5.
In the case of `O=c1oc2ccccc2cc1-c1ccccc1` [Compound 40], the “pIC50 MAO-B” value is given as 4.928.
For `Cc1ccc(C(=O)Nc2cc3ccccc3oc2=O)cc1` [Compound 42], the “pIC50 MAO-B” value is 5.099.
Turning to `COc1ccc(C(=O)Nc2cc3ccccc3oc2=O)cc1` [Compound 44], the “pIC50 MAO-B” value was 4.516.
For `O=C(Nc1cc2ccccc2oc1=O)c1ccc(Cl)cc1` [Compound 45], the “pIC50 MAO-B” value is listed as 5.71.
Take `COc1ccc(C(=O)Nc2cc3ccccc3oc2=O)cc1OC` [Compound 46]: the “pIC50 MAO-B” value was 4.234.
For the compound `COc1cc(C(=O)Nc2cc3ccccc3oc2=O)cc(OC)c1OC` [Compound 47], the “pIC50 MAO-B” value is on record as 4.139.
Consider `O=C(Nc1cc2ccccc2oc1=O)c1ccc(Cl)c(Cl)c1` [Compound 48], for which the “pIC50 MAO-B” value is on record as 5.225.
Consider `O=C(Nc1cc2ccccc2oc1=O)C1CCCCC1` [Compound 49], for which the “pIC50 MAO-B” value is 4.301.
For `COc1ccc(-c2cc3cc(OC)ccc3oc2=O)cc1` [Compound 52], the “pIC50 MAO-B” value is listed as 7.143.
Regarding `COc1ccc(-c2cc3cc(Br)ccc3oc2=O)cc1` [Compound 53], the “pIC50 MAO-B” value was 8.222.
On to `COc1ccc2oc(=O)c(-c3ccccc3)cc2c1` [Compound 62], for which the “pIC50 MAO-B” value is given as 6.384.
As for `Cc1ccc2oc(=O)c(-c3ccc(Br)cc3)cc2c1` [Compound 64, 3-(4′-bromophenyl)-6-methylcoumarin], the “pIC50 MAO-B” value was 9.412. Also, the “MAO-B pIC50” value (data set compounds) was above 6.5.
In the case of `COc1ccc2oc(=O)c(-c3ccc(Br)cc3)cc2c1` [Compound 66, 3-(4′-bromophenyl)-6-mehtoxycoumarin], the “pIC50 MAO-B” value is recorded as 9.495. Further, the “MAO-B pIC50” value (data set compounds) is above 6.5.
As to `COc1ccc2oc(=O)c(-c3cccc(Br)c3)cc2c1` [Compound 67, 3-(3′-bromophenyl)-6-methoxycoumarin], the “pIC50 MAO-B” value is given as 9.187. Also, under “data set compounds”, the “MAO-B pIC50” value is recorded as above 6.5.
As to `O=c1oc2ccc(O)cc2cc1-c1cccc(Br)c1` [Compound 69], the “pIC50 MAO-B” value is on record as 8.097. Further, the “MAO-B pIC50” value (data set compounds) is above 6.5.
On to `O=c1oc2ccc(OC3CCCC3)cc2cc1-c1ccc(Br)cc1` [Compound 70], for which the “pIC50 MAO-B” value is 5.154.
Consider `CC(=O)COc1ccc2oc(=O)c(-c3cccc(Br)c3)cc2c1` [Compound 71], for which the “pIC50 MAO-B” value is 5.83.
For `O=C(O)COc1ccc2oc(=O)c(-c3cccc(Br)c3)cc2c1` [Compound 74], the “pIC50 MAO-B” value was 8.62. For the same compound, the “MAO-B pIC50” value (data set compounds) is recorded as above 6.5.
As to `COc1ccc(-c2cc3c(ccc4ccccc43)oc2=O)cc1` [Compound 75], the “pIC50 MAO-B” value was 7.237.
Regarding `COc1cccc(-c2cc3c(ccc4ccccc43)oc2=O)c1` [Compound 76], the “pIC50 MAO-B” value is 8.613. The “MAO-B pIC50” value (data set compounds) is listed as above 6.5.
With `COc1ccccc1-c1cc2c(ccc3ccccc32)oc1=O` [Compound 77], the “pIC50 MAO-B” value is 7.385.
Consider `COc1ccc(-c2cc3c(ccc4ccccc43)oc2=O)cc1OC` [Compound 78], for which the “pIC50 MAO-B” value was 7.312. The “MAO-B pIC50” value (data set compounds) is reported as above 6.5.
In the case of `COc1cc(-c2cc3c(ccc4ccccc43)oc2=O)cc(OC)c1OC` [Compound 79], the “pIC50 MAO-B” value is given as 5.851.
As to `Cc1cccc(-c2cc3c(ccc4ccccc43)oc2=O)c1` [Compound 80], the “pIC50 MAO-B” value was 5.62.
For the compound `O=c1oc2ccc3ccccc3c2cc1-c1ccccc1O` [Compound 83], the “pIC50 MAO-B” value is on record as 5.496.
With `O=c1oc2ccc3ccccc3c2cc1-c1cc(O)cc(O)c1` [Compound 85], the “pIC50 MAO-B” value is recorded as 4.503.
With `Cc1ccc2oc(=O)c(-c3ccccc3[N+](=O)[O-])cc2c1` [Compound 86], the “pIC50 MAO-B” value is reported as 5.258.
As to `Cc1ccc2oc(=O)c(-c3cccc([N+](=O)[O-])c3)cc2c1` [Compound 87], the “pIC50 MAO-B” value is 8.222.
For `Cc1ccc2oc(=O)c(-c3ccccc3N)cc2c1` [Compound 89], the “MAO-B pIC50” value (data set compounds) was 5.664.
Consider `Cc1ccc2oc(=O)c(-c3cccc(N)c3)cc2c1` [Compound 90], for which the “pIC50 MAO-B” value is given as 8.658.
